Measurements taken from patent publication US12678443B2, “Medicament for preventing and/or treating dry eye” (Santen Pharmaceutical Co., Ltd., priority 2021, dated 2026).

Columns and labels:
[1] = tested on: dry-eye model SD (Sprague-Dawley) rat; assay: Quantity of tears by Schirmer strip in the exorbital-lacrimal-gland-removed dry-eye model (Tests 3 and 4); format: in vivo; conditions: for Incremental difference in Schirmer's test at 0.5 hours after ocular instillation / Incremental difference in Schirmer's test at 8 hours after ocular instillation: difference from vehicle-instilled group, rat dry-eye model
Experimental: A somnopentyl injection five-fold diluted with physiological saline was intraperitoneally administered to a normal male SD (Sprague-Dawley) rat by 2.5 mL/kg, and the rat was given general anesthesia, followed by keeping the anesthetized state by inhalation of about 1 to 3% isoflurane. Then, the skin on each cheek was incised to remove the exorbital lacrimal gland, followed by suturation with a Michel suture clamp. In this test, an individual wherein reduction of tears was confirmed after 13 weeks from the removal of exorbital lacrimal gland was included as the experimental animal.
Half an hour after treatment of general anesthesia, Schirmer strip (1 mm×17 mm) was inserted to conjunctival sac of the lower eyelid of a rat, and then after 1 minute of the insertion, the wet part of the Schirmer strip was measured in increments of 0.5 mm. (N=14 or 16 eyes)
The quantity of tears was measured in a similar manner to Test 3. (N=10 eyes)

[2] = tested on: normal male cynomolgus monkeys; assay: Tear film break-up time (TBUT) after single ocular instillation (Tests 1 and 2); format: in vivo, cynomolgus monkey; conditions: for extension of TBUT: single ocular instillation 1% (w/v) ophthalmic solution, FIG. 2
[3] = cited from earlier work; for secretion of tears and tear proteins: Patent Literature 1
β1 adrenergic receptors = β1 adrenergic receptors (Homo sapiens, UniProt P08588); conditions: cited from earlier work
Sequence of β1 adrenergic receptors (P08588 whole entry): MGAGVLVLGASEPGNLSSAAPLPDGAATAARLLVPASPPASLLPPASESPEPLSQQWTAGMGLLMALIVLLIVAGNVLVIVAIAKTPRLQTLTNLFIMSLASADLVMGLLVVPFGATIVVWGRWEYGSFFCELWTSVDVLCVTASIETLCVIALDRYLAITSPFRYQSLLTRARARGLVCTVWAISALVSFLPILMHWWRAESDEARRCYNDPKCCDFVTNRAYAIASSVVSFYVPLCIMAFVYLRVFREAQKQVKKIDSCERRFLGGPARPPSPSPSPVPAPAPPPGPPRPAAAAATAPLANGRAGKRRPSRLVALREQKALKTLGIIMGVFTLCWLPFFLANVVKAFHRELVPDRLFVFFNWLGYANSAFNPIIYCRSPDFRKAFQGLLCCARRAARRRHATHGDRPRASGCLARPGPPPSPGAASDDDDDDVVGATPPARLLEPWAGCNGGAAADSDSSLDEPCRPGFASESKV

[4] = tested on: normal male cynomolgus monkeys; assay: Intraocular pressure test, twice daily repeated instillation (Test 5); format: in vivo, cynomolgus monkey; conditions: 0.01% and 0.1% ophthalmic solutions, twice daily repeatedly, Day 1, 7, 14; FIG. 4
Experimental: Specifically, one drop of 0.4% oxybuprocaine hydrochloride ophthalmic solution (trade name: Benoxil (registered trademark) ophthalmic solution 0.4%) was instilled to the right eye so as to provide surface anesthesia, and then the intraocular pressure was measured three times with Mentor tonometer (applanation), followed by calculation of the average. (N=6 eyes)

[5] = 0.001% ophthalmic solution, 8 hours
[6] = 0.01% ophthalmic solution, 8 hours
[7] = 0.1% ophthalmic solution, 8 hours
[8] = 1% ophthalmic solution, 8 hours

SMILES	Incremental difference in Schirmer's test at 0.5 hours after ocular instillation ([1]; 0.001% ophthalmic solution) [mm/min]	Incremental difference in Schirmer's test at 8 hours after ocular instillation [1, 5] [mm/min]	Incremental difference in Schirmer's test at 0.5 hours after ocular instillation ([1]; 0.01% ophthalmic solution) [mm/min]	Incremental difference in Schirmer's test at 8 hours after ocular instillation [1, 6] [mm/min]	Incremental difference in Schirmer's test at 0.5 hours after ocular instillation ([1]; 0.1% ophthalmic solution) [mm/min]	Incremental difference in Schirmer's test at 8 hours after ocular instillation [1, 7] [mm/min]	Incremental difference in Schirmer's test at 0.5 hours after ocular instillation ([1]; 1% ophthalmic solution) [mm/min]	Incremental difference in Schirmer's test at 8 hours after ocular instillation [1, 8] [mm/min]	extension of TBUT [2]	secretion of tears and tear proteins [3]	also measured
CC(C)(C)NCC(O)c1cc(Cl)c(N)c(Cl)c1 (stereo not shown) [clenbuterol]	2.0	0.3	2.7	1.1	3.6	2.4	3.0	3.9	not confirmed	confirmed to enhance	–
CC(Cc1ccc(O)cc1)NCC(O)c1cc(O)cc(O)c1 (stereo not shown) [fenoterol]	1.8	0.0	4.8	0.2	6.1	0.9	3.6	1.1	not confirmed	confirmed to enhance	–
COc1ccc(CC(C)(C)NC[C@H](O)c2cc(O)cc3c2OCC(=O)N3)cc1 [olodaterol, 6-hydroxy-8-((1R)-1-hydroxy-2-{[2-(4-methoxyphenyl)-1,1-dimethylethyl]amino}-ethyl)-2H-1,4-benzoxazin-3-(4H)-one]	7.2	2.1	6.9	2.8	–	–	–	–	–	–	Incremental difference in Schirmer's test at 0.5 hours after ocular instillation ([1]; 0.00001% ophthalmic solution): 2.8 mm/min; Incremental difference in Schirmer's test at 8 hours after ocular instillation ([1]; 0.00001% ophthalmic solution, 8 hours): 0.4 mm/min; Incremental difference in Schirmer's test at 0.5 hours after ocular instillation ([1]; 0.0001% ophthalmic solution): 6.0 mm/min; Incremental difference in Schirmer's test at 8 hours after ocular instillation ([1]; 0.0001% ophthalmic solution, 8 hours): 1.7 mm/min; lacrimal secretion at 8 hours after ocular instillation ([1]; 0.0001 to 0.01% instilled groups, 8 hours, FIG. 3): highly enhanced; increase of tear volumes at 16 hours after ocular instillation ([1]; 0.001 and 0.01% instilled groups, 16 hours, FIG. 3): increase of tear volumes was observed; lacrimal secretion ([1]; olodaterol-instilled groups 0.00001 to 0.01%, FIG. 3): enhanced; effect of stabilizing tear film ([2]; low concentration of 0.0001%, FIG. 1): confirmed to show the effect of stabilizing tear film; TBUT-extending effect ([2]; single ocular instillation 0.0001, 0.001, 0.01% (w/v), 20 μL/eye, 15, 30, 60 minutes, FIG. 1): confirmed in a concentration-dependent manner; intrinsic activity against β1 adrenergic receptors (β1 adrenergic receptors): weak intrinsic activity; intraocular pressure [4]: did not show increase and/or decrease
CC(C)(C)NCC(O)c1ccc(O)c(CO)c1 (stereo not shown) [salbutamol]	–	–	–	–	–	–	–	–	–	–	lacrimal secretion ([3]; Patent Literature 2): confirmed to enhance lacrimal secretion; effects on the treatment of dry eye ([3]; Patent Literature 3): did not have sufficient effects
